Data: patent publication US20090297571A1, “ANTIFUNGAL WALLBOARDS AND BUILDING MATERIALS AND METHODS FOR THE PRODUCTION THEREOF” (SYNGENTA CROP PROTECTION, INC., priority 2004, published 2009)
Converted amounts (≈) assume the structure as drawn. “And” between values parts separate entries of the source, which are not always exact repeats. Equal values may be shown once. Read-outs that look alike come from different tables or passages of the source.

Legend:
Format in all cases: cell-based
[1] = tested on: Aureobasidium pullulans; test: Liquid culture assay on 24 well plates, solo ai (EC95/MIC); settings: for EC95: 24° C., 3-6 days; for MIC: Aureobasidium pullulans, read-out: MIC Minimal inhibition concentration
Protocol: (§1) The following compounds and formulations were used: […]
(§2) Alternaria tenuissima, Penicillium citrinum, Stachybotrys chartarum, Aspergillus niger and Aureobasidium pullulans were separately cultivated on PDA media to […] sporulation. Spore suspensions were produced for each fungi.
(§3) For solo (i.e. single) ai testing the formulated fungicide (100 ul) was filled into the 24 well plates (8 different rates: 100-0.05 mg aiA final volume as described above) and 100 ul distilled water was added. Afterwards 800 ul of 0.3% PDA media was added to the plate. The spore suspension of the specific fungi was added to this media in advance containing approx. 100.000 spores/ml. The 24 well plates were sealed and incubated at 24° C.
(§4) Dependent on the growth properties of each organisms, the evaluation was done after 3 to 6 days, when the surface of the check well was covered with mycelium. The evaluation was performed by assessing the growth of the fungi related to the check growth. The results are expressed as % activity relative to the check (values of 0-100% growth). Afterwards the results were converted in % growth inhibition. EC95 values and also MIC (minimal inhibition concentration) values were derived for each compound.
(§5) For each solo compound a graph was drawn of percentage inhibition against the concentration of the fungicide. […] Also the concentration that gave the minimum inhibition concentration was derived as the MIC value.

[2] = tested on: Stachybotrys chartarum; test: as above; settings: for EC95: 24° C., 3-6 days; for MIC: Stachybotrys chartarum, read-out: MIC Minimal inhibition concentration
Protocol: as §1, §2, §3, §4, §5

[3] = tested on: Penicillium citrinum; test: as above; settings: for EC95: 24° C., 3-6 days; for MIC: Penicillium citrinum, read-out: MIC Minimal inhibition concentration
Protocol: as §1, §2, §3, §4, §5

[4] = tested on: Alternaria tenuissima; test: as above; settings: for EC95: 24° C., 3-6 days; for MIC: Alternaria tenuissima, read-out: MIC Minimal inhibition concentration
Protocol: as §1, §2, §3, §4, §5

[5] = tested on: Aspergillus niger; test: as above; settings: for EC95: 24° C., 3-6 days; for MIC: Aspergillus niger, read-out: MIC Minimal inhibition concentration
Protocol: as §1, §2, §3, §4, §5

[6] = tested on: Aureobasidium pullulans; test: Synergy testing of 2-way mixtures, 24 well plates; settings: A. pullulans
Protocol: (§6) For synergism testing of the 2-way mixtures 100 ul of each fungicide were filled into the 24 well plates (8 different rates) and 800 ul of 0.3% PDA media containing the spore suspension was added (see above). Different ratios of the 2 fungicide rates were tested at the same time.
as §2
(§7) For the mixtures of different fungicides the synergism was calculated based on the Colby equation, which is described below: […]
(§8) A synergistic effect exists whenever the action of the active ingredient combination of the compound of formula I and one or more compounds of formula II is greater than the sum of the actions of the active ingredients applied individually.
(§9) The fungicidal action to be expected, We, for a given combination of two fungicides can be calculated as follows (see COLBY, S. R. “Calculating synergistic and antagonistic response of herbicide combinations”. Weeds 15, pages 20-22; 1967):
(§10) If the activity actually observed is greater than the expected value We, there is a synergistic effect.
(§11) All rates below are expressed as mg ai/l (i.e. ppm).

[7] = tested on: Alternaria tenuissima; test: Synergy testing of 2-way mixtures, 24 well plates; settings: A. tenuissima
Protocol: as §6, §2, §7, §8, §9, §10, §11

[8] = tested on: Aspergillus niger; test: Synergy testing of 2-way mixtures, 24 well plates; settings: A. niger
Protocol: as §6, §2, §7, §8, §9, §10, §11

[9] = tested on: Stachybotrys chartarum; test: Synergy testing of 2-way mixtures, 24 well plates; settings: S. chartarum
Protocol: as §6, §2, §7, §8, §9, §10, §11

[10] = tested on: Mucor indicus; test: Agar growth medium petri dish test, visual assessment of fungus-free surface; settings: after 3 days at 25° C., 'no effect' = less than 50% activity at highest dose rate of 100 mg/l
Protocol: (§12) A fungal growth medium was made comprising yeast extract (4 g) agar (8 g), magnesium sulphate (0.2 g), sodium nitrate (2.4 g), potassium chloride (0.2 g), potassium dihydrogen orthophosphate (0.6 g), glycerol (8 ml), distilled water (390 ml). Fungicides as set out in Tables 1 to 4 were added at levels of 5000, 100, 10, 1, 0.1 and 0.01 mg fungicide/litre of growth medium to give […] different growth medium compositions for each fungicide. These growth media containing the fungicide were each put into petri dishes.
(§13) Aspergillus versicolor, Ulocladium chartarum, Mucor indicus and Alternaria alternata were separately propagated on Luria agar to suppress sporulation and mycelial plugs were transferred upside down onto the petri dishes containing the growth medium.
(§14) A visual assessment was made of the surface of the petri dishes. The result recorded was the percentage of the surface that remained free of fungus. This was recorded as percentage activity
(§15) For each fungicide, a graph was drawn of percentage activity against concentration of to fungicide in the growth medium. From this graph, the concentrations of fungicide required to achieve 50%, 80% and 95% activity was estimated. These figures are given in the results tables.

[11] = tested on: Aspergillus versicolor; test: as above; settings: after 19 days at 25° C.
Protocol: as §12, §13, §14, §15

[12] = tested on: Ulocladium chartarum; test: as above; settings: after 13 days at 20° C., 'no effect' = less than 50% activity at highest dose rate of 100 mg/l
Protocol: as §12, §13, §14, §15

[13] = tested on: Alternaria alternata; test: as above
Protocol: as §12, §13, §14, §15

[14] = A. pullulans, rates 0-100 mg ai/l, mean values of n = 5
[15] = S. chartarum, rates 0-100 mg ai/l, mean values of n = 5
[16] = P. citrinum, rates 0-100 mg ai/l, mean values of n = 5
[17] = A. tenuissima, rates 0-100 mg ai/l, mean values of n = 5
[18] = A. niger, rates 0-100 mg ai/l, mean values of n = 5
[19] = CCZ + FDL table, rate (PPZ) 1.6 mg ai/l
[20] = CCZ + FDL table, rate (PPZ) 3.1 mg ai/l

CC(C1CC1)C(O)(Cn1cncn1)c1ccc(Cl)cc1 (stereo not shown) [Cyproconazole]
EC95 ([1]; A. pullulans): 6.5 mg ai/l | MIC [1, 14]: 12.5 µg/mL (≈ 42.8 µM) | EC95 ([2]; S. chartarum): >100 mg ai/l | MIC [2, 15]: > 100 µg/mL | EC95 ([3]; P. citrinum): 50 mg ai/l | MIC [3, 16]: 50 µg/mL (≈ 171 µM) | EC95 ([4]; A. tenuissima): 10.2 mg ai/l | MIC [4, 17]: 12.5 µg/mL (≈ 42.8 µM) | EC95 ([5]; A. niger): 10.1 mg ai/l | MIC [5, 18]: 12.5 µg/mL (≈ 42.8 µM) | inh % (PPZ alone) [6, 19]: 70% | inh % (PPZ alone) ([7]; CCZ + FDL table, rate (PPZ) 0.8 mg ai/l): 10% | inh % (PPZ alone) [7, 20]: 30% | inh % (PPZ alone) [8, 19]: 0% | inh % (PPZ alone) [8, 20]: 0%

CC1COC(Cn2cncn2)(c2ccc(Oc3ccc(Cl)cc3)cc2Cl)O1 (stereo not shown) [Difenoconazole]
EC95 ([1]; A. pullulans): 8 mg ai/l | MIC [1, 14]: 12.5 µg/mL (≈ 30.8 µM) | EC95 ([2]; S. chartarum): 2.7 mg ai/l | MIC [2, 15]: 3.1 µg/mL (≈ 7.63 µM) | EC95 ([3]; P. citrinum): 1.7 mg ai/l | MIC [3, 16]: 1.6 µg/mL (≈ 3.94 µM) | EC95 ([4]; A. tenuissima): 0.7 mg ai/l | MIC [4, 17]: 0.8 µg/mL (≈ 1.97 µM) | EC95 ([5]; A. niger): 1.4 mg ai/l | MIC [5, 18]: 1.6 µg/mL (≈ 3.94 µM) | inh % (DFZ alone) ([6]; DFZ 0.2 mg ai/l): 70% | inh % (DFZ alone) ([6]; DFZ 0.8 mg ai/l): 90% | inh % (DFZ alone) ([6]; DFZ 1.6 mg ai/l): 90% | inh % (DFZ alone) ([6]; DFZ 3.1 mg ai/l): 70% | inh % (DFZ alone) ([9]; DFZ 0.8 mg ai/l): 50% | inh % (DFZ alone) ([9]; DFZ 1.6 mg ai/l): 90% | inh % (DFZ alone) ([8]; DFZ 0.05 mg ai/l): 0% | inh % (DFZ alone) ([8]; DFZ 0.2 mg ai/l): 0% | inh % (DFZ alone) ([8]; DFZ 0.8 mg ai/l): 10%

N#Cc1c[nH]cc1-c1cccc2c1OC(F)(F)O2 [Fludioxonil]
Concentration required for 80% Activity [10]: 2.8 mg/L | Concentration required for 80% Activity [11]: 0.81 mg/L | Concentration required for 80% Activity [12]: 0.28 mg/L | Concentration required for 95% Activity [13]: 0.95 mg/L | EC95 ([1]; A. pullulans): >100 mg ai/l | MIC [1]: > 100 µg/mL | EC95 ([2]; S. chartarum): 0.18 mg ai/l | MIC [2]: 0.2 µg/mL (≈ 0.806 µM) | EC95 ([3]; P. citrinum): 0.18 mg ai/l | MIC [3]: 0.2 µg/mL (≈ 0.806 µM) | EC95 ([4]; A. tenuissima): 1.3 mg ai/l | MIC [4]: 1.6 µg/mL (≈ 6.45 µM) | EC95 ([5]; A. niger): >100 mg ai/l | MIC [5]: > 100 µg/mL | inh % (FDL alone) ([6]; FDL 0.8 mg ai/l): 10% | inh % (FDL alone) ([6]; FDL 1.6 mg ai/l, listed as FDL): 0% and 10% | inh % (FDL alone) ([6]; FDL 3.1 mg ai/l, listed as FDL): 0% and 10% | inh % (FDL alone) ([6]; FDL 12.5 mg ai/l, listed as FDL): 0% and 10% | inh % (FDL alone) ([6]; FDL 50 mg ai/l, listed as FDL): 0% and 10% | inh % (FDL alone) ([6]; FDL 100 mg ai/l, listed as FDL): 0% and 10% | inh % (FDL alone) ([9]; FDL 0.05 mg ai/l): 10% | inh % (FDL alone) ([7]; FDL 0.2 mg ai/l, listed as FDL): 90% and 70% | inh % (FDL alone) ([7]; FDL 0.8 mg ai/l): 90% | inh % (FDL alone) ([8]; FDL 0.2 mg ai/l): 30% | inh % (FDL alone) ([8]; FDL 0.8 mg ai/l): 30% | inh % (FDL alone) ([8]; FDL 1.6 mg ai/l): 30% | inh % (FDL alone) ([8]; FDL 3.1 mg ai/l): 30% | inh % (FDL alone) ([8]; FDL 12.5 mg ai/l): 30% | inh % (FDL alone) ([8]; FDL 50 mg ai/l): 30% | inh % (FDL alone) ([8]; FDL 100 mg ai/l): 30%

CCCC1COC(Cn2cncn2)(c2ccc(Cl)cc2Cl)O1 (stereo not shown) [Propiconazole]
Concentration required for 80% Activity [10]: 61 mg/L | Concentration required for 80% Activity [11]: 9.2 mg/L | Concentration required for 80% Activity [12]: 4.2 mg/L | Concentration required for 95% Activity [13]: 16 mg/L | EC95 ([1]; A. pullulans): 36 mg ai/l | MIC [1, 14]: 50 µg/mL (≈ 146 µM) | EC95 ([2]; S. chartarum): >100 mg ai/l | MIC [2, 15]: > 100 µg/mL | EC95 ([3]; P. citrinum): 1.5 mg ai/l | MIC [3, 16]: 1.6 µg/mL (≈ 4.68 µM) | EC95 ([4]; A. tenuissima): 10.1 mg ai/l | MIC [4, 17]: 12.5 µg/mL (≈ 36.5 µM) | EC95 ([5]; A. niger): 3 mg ai/l | MIC [5, 18]: 3.1 µg/mL (≈ 9.06 µM) | inh % (PPZ alone) ([6]; PPZ 3.1 mg ai/l): 70% | inh % (PPZ alone) ([6]; PPZ 12.5 mg ai/l): 70% | inh % (PPZ alone) ([7]; PPZ 0.8 mg ai/l): 0% | inh % (PPZ alone) ([7]; PPZ 1.6 mg ai/l): 10% | inh % (PPZ alone) ([7]; PPZ 3.1 mg ai/l): 30% | inh % (PPZ alone) ([8]; PPZ 0.05 mg ai/l): 0% | inh % (PPZ alone) ([8]; PPZ 0.2 mg ai/l): 0% | inh % (PPZ alone) ([8]; PPZ 0.8 mg ai/l): 0% | inh % (PPZ alone) ([8]; PPZ 1.6 mg ai/l): 30%

c1ccc2[nH]c(-c3cscn3)nc2c1 [Thiabendazole]
Concentration required for 80% Activity [10]: No effect | Concentration required for 80% Activity [11]: 6.9 mg/L | Concentration required for 80% Activity [12]: No effect | Concentration required for 95% Activity [13]: >5000 mg/L
